Test: xn = mol fraction of the nth substance listed
Details: for surface tension liquid-gas: Pendant drop shape; for mass density: Liquid

CC(C)=O [acetone] + Cc1ccccc1
Details	mass density, 308.15 K [kg/m3]	mass density, 313.15 K [kg/m3]	mass density, 318.15 K [kg/m3]	mass density, 323.15 K [kg/m3]	mass density, 328.15 K [kg/m3]	mass density, 333.15 K [kg/m3]	surface tension liquid-gas, 307.86 K [mN/m]	surface tension liquid-gas, 317.86 K [mN/m]	surface tension liquid-gas, 327.88 K [mN/m]
x2 = 0	775.4	769.6	762.5	756.2	749.3	742.3	–	20.33	19.01
x2 = 0.1	787.7	782	776.2	770.2	764	757.3	–	20.9	19.74
x2 = 0.2002	–	790.4	784.6	778.9	773.2	767.5	–	21.44	20.32
x2 = 0.3002	805.5	800.1	794.6	789.1	783.5	778.1	–	22.18	21.07
x2 = 0.3997	815.1	809.7	804.2	798.6	792.9	787.3	–	22.67	21.8
x2 = 0.4973	822.1	816.9	811.6	806.3	801	795.6	–	23.25	22.2
x2 = 0.6011	829.7	824.7	819.5	814.4	809.2	803.9	–	24.11	22.97
x2 = 0.7004	836.4	831.4	826.4	–	816.3	811.2	–	24.4	23.56
x2 = 0.7998	842.4	837.6	832.7	827.7	822.8	817.8	–	24.99	23.83
x2 = 0.8982	847.9	843.2	838.4	833.6	828.7	823.8	26.24	25.2	24.14

Source: the NIST ThermoML archive (doi:10.1021/je034062r)
